The values that follow come from EPA's ToxRefDB 2.

As a reminder, the LOAEL is the lowest tested level that showed an adverse finding. As a reminder, the NOAEL is the highest dose or exposure tested at which no adverse effect was seen.

Data set [1] has as its system rat. Conditions: Sub-acute repeat dose toxicity, sprague dawley, Oral, Gavage/Intubation, dose end: 1 month, group: systemic.
A further data set concerns dog. Conditions: Sub-acute repeat dose toxicity, beagle, Oral, Gavage/Intubation, dose end: 4 week, group: systemic.
In data set [2] the test system is mouse. As to conditions: Subchronic oral toxicity in rodents, b6c3f1, Feed, dose end: 13 week, group: systemic.
Data set [3] concerns rat. Conditions: Subchronic oral toxicity in rodents, fischer, Feed, dose end: 13 week.
Data set [4] concerns rat. As to conditions: Combined chronic toxicity/carcinogenicity, sprague dawley, Oral, Feed, dose end: 2 year, group: systemic.
For data set [5], the system named is rat. As to conditions: Peri- and post-natal toxicity study (Segment III), sprague dawley, Oral, Gavage/Intubation, dose end: 43 PND.
For data set [6], the system named is mouse. As to conditions: Developmental neurotoxicity study; cd1; Injection; Subcutaneous; dose end: 42 PND; group: cannot be grouped; systemic / in life observation / body weight / offspring (pup) weight.
Data set [7] has as its system rat. Conditions: Chronic toxicity, sprague dawley, Oral, Feed, dose end: 2 year, group: systemic.
Data set [8] deals with rat. Conditions: Prenatal developmental toxicity study, wistar, Oral, Gavage/Intubation, dose end: 20 GD.
Data set [9] concerns rat. Conditions: Prenatal developmental toxicity study, wistar, Oral, Feed, dose end: 21 GD.
In data set [10] the test system is rat. Conditions: Prenatal developmental toxicity study, wistar, Oral, Gavage/Intubation, dose end: 20 GD. This is another data set of the same source.
Data set [11] deals with rat. As to conditions: Prenatal developmental toxicity study; wistar; Dermal; Topical; dose end: 15 GD; group: developmental; developmental / developmental malformation / bone / supernumerary.
In data set [12] the test system is rat. Conditions: Multigenerational reproductive toxicity study, wistar, Oral, Gavage/Intubation, dose end: 2 generation.
The subject of data set [13] is rat. Conditions: Prenatal developmental toxicity study, wistar, Oral, Gavage/Intubation, dose end: 19 GD.
The test system of another data set is rabbit. As to conditions: Prenatal developmental toxicity study, himalayan, Oral, Gavage/Intubation, dose end: 18 GD.
In data set [14] the test system is rat. Conditions: Developmental neurotoxicity study; sprague dawley; Oral; Gavage/Intubation; dose end: 42 PND; group: cannot be grouped; developmental / offspring survival late / [other] / [other].
The mark [15] stands for this setting: systemic / in life observation / body weight / body weight gain + systemic / in life observation / food consumption / food consumption.
The mark [16] stands for this setting: systemic / in life observation / body weight / body weight gain + systemic / in life observation / food consumption / food consumption + ….
The mark [17] stands for this setting: systemic / clinical chemistry / alanine aminotransferase (alt/sgpt) / alanine aminotransferase (alt/sgpt) + systemic / hematology / blood ….
Setting [18] is: systemic / organ weight / liver / relative to body weight.
Setting [19] is: group: maternal, reproductive / reproductive performance / estrous cycle / abnormal.
The mark [20] stands for this setting: group: systemic, systemic / hematology / mean corpuscular (cell) volume (mcv) / mean corpuscular (cell) volume (mcv) + systemic / hematology / mean ….
Setting [21] is: group: systemic, systemic / pathology microscopic / kidney / nephropathy.
Where [22] appears, read: systemic / in life observation / body weight / body weight.
The mark [23] stands for this setting: systemic / pathology microscopic / preputial gland / atrophy.
[24] abbreviates: group: developmental, developmental / developmental landmark / vaginal opening / vaginal opening.
Setting [25] is: group: maternal, reproductive / reproductive performance / estrous cycle / [other] + reproductive / reproductive performance / estrous cycle / abnormal.
[26] abbreviates: group: parental, systemic / organ weight / adrenal gland / absolute.
[27] abbreviates: systemic / pathology microscopic / pituitary gland / adenoma/carcinoma combined + systemic / in life observation / body weight / body weight….
Where [28] appears, read: group: developmental, developmental / developmental malformation / great vessels / [other] + developmental / developmental malformation / bone / fused + ….
[29] abbreviates: group: maternal, reproductive / offspring survival early / litter viability other / total litter loss + systemic / in life observation / body weight / body ….
Setting [30] is: group: developmental, systemic / in life observation / body weight / fetal weight.
Setting [31] is: group: maternal, reproductive / reproductive performance / postimplantation loss / postimplantation loss + reproductive / reproductive performance / ….
Setting [32] is: group: developmental, developmental / developmental malformation / bone / supernumerary.
[33] abbreviates: group: maternal, systemic / in life observation / clinical signs / abnormal respiratory sounds + systemic / in life observation / clinical signs / altered ….
[34] abbreviates: group: offspring, systemic / in life observation / body weight / offspring (pup) weight + systemic / organ weight / spleen / absolute + systemic / organ ….
[35] abbreviates: group: parental, systemic / organ weight / liver / absolute + systemic / organ weight / thymus / absolute + systemic / organ weight / thymus / relative to ….
Setting [36] is: group: reproductive, reproductive / reproductive performance / estrous cycle / length + reproductive / reproductive performance / estrous cycle / periodicity + ….
Where [37] appears, read: group: developmental, developmental / developmental malformation / bone / delayed ossification + developmental / developmental malformation / bone / supernumerary….
Where [38] appears, read: group: maternal, systemic / in life observation / body weight / body weight gain + systemic / in life observation / food consumption / food consumption.
Setting [39] is: group: maternal, systemic / in life observation / body weight / body weight gain + systemic / in life observation / food consumption / food consumption + ….
[40] abbreviates: group: developmental, developmental / developmental malformation / bone / arthrogryposis + developmental / developmental malformation / bone / malformation, total.
Setting [41] is: group: maternal, reproductive / reproductive performance / resorptions / resorptions + systemic / in life observation / body weight / body weight gain + ….

Take `CC(=O)O.COCCOc1cc2cc(C(=O)NC3CCN(C(C)C)CC3)n(CC(=O)Nc3ccc(Cl)cn3)c2cn1`: the LEL in the data set on rat [1] (setting [15]) was determined as 10 mg/kg/day; in the data set with dog (systemic / organ weight / liver / absolute + systemic / organ weight / liver / relative to body weight), 15 mg/kg/day. Besides, the NEL in the data set with rat [1] (setting [15]) was less than 10 mg/kg/day; with dog (setting [17]) it was 3 mg/kg/day. The results for the LOAEL in the data set on rat [1] (setting [16]) and in the data set with dog (setting [17]) were 30 mg/kg/day and 75 mg/kg/day, respectively. Besides, the NOAEL with rat [1] (setting [16]) was 10 mg/kg/day; in the data set on dog (setting [17]), 15 mg/kg/day.
For the compound `Cc1cccc([N+](=O)[O-])c1` [3-Nitrotoluene], the LOAEL in the data set with mouse [2] (systemic / in life observation / body weight / body weight gain) was 743 mg/kg/day; in the data set with rat [3] (setting [19]) it was more than 638 mg/kg/day; with rat [3] (setting [20]), 336 mg/kg/day. For the same compound, the NOAEL in the data set with mouse [2] (setting [16]) was 398 mg/kg/day; in the data set with rat [3] (setting [19]), not below 638 mg/kg/day; with rat [3] (setting [20]) it was 172 mg/kg/day. Further, the LEL with mouse [2] (setting [18]) worked out at 114 mg/kg/day; in the data set with rat [3] (setting [19]) it was 336 mg/kg/day; with rat [3] (setting [21]) it was 46 mg/kg/day. Besides, the NEL in the data set on mouse [2] (setting [18]) was less than 114 mg/kg/day; in the data set on rat [3] (setting [19]), 172 mg/kg/day; in the data set on rat [3] (setting [21]) it was less than 46 mg/kg/day.
For the compound `C#C[C@]1(O)CC[C@H]2[C@@H]3CCc4cc(O)ccc4[C@H]3CC[C@@]21C` [17alpha-Ethinylestradiol], the LEL in the data set on rat [4] (setting [22]) was determined as 0.00012 mg/kg/day; in the data set on rat [5] (setting [24]), 0.005 mg/kg/day; in the data set with rat [5] (setting [25]) it was 0.005 mg/kg/day; in the data set with rat [5] (setting [26]) it was 0.0025 mg/kg/day. Further, the NEL is less than 0.00012 mg/kg/day with rat [4] (setting [22]), 0.0025 mg/kg/day in the data set on rat [5] (setting [24]), 0.0025 mg/kg/day in the data set with rat [5] (setting [25]) and less than 0.0025 mg/kg/day in the data set on rat [5] (setting [26]). For the same compound, the LOAEL is 0.00021 mg/kg/day in the data set with rat [4] (setting [23]), more than 0.005 mg/kg/day in the data set with rat [5] (setting [24]), more than 0.005 mg/kg/day with rat [5] (setting [25]) and more than 0.005 mg/kg/day with rat [5] (setting [26]). For the same compound, the NOAEL is less than 0.00021 mg/kg/day in the data set on rat [4] (setting [23]), not below 0.005 mg/kg/day with rat [5] (setting [24]), not below 0.005 mg/kg/day in the data set with rat [5] (setting [25]) and not below 0.005 mg/kg/day in the data set with rat [5] (setting [26]).
In the data set on mouse [6], `O=P1(N(CCCl)CCCl)NCCCO1` (centres undefined) [Cyclophosphamide] came in with an LEL of 20 mg/kg/day, an LOAEL of more than 45 mg/kg/day, an NEL of less than 20 mg/kg/day and an NOAEL not below 45 mg/kg/day.
Take `O=c1c(-c2ccc(O)cc2)coc2cc(O)cc(O)c12` [Genistein]: the NEL in the data set on rat [7] (systemic / organ weight / pituitary gland / absolute + systemic / organ weight / pituitary gland / relative to body weight) was 0.25 mg/kg/day; in the data set on rat [8] (setting [28]), 20 mg/kg/day; with rat [8] (setting [29]), 150 mg/kg/day; with rat [9] (setting [30]), 100 mg/kg/day; with rat [9] (setting [31]) it was 100 mg/kg/day. The LEL was found to be 5 mg/kg/day in the data set on rat [7] (systemic / organ weight / pituitary gland / absolute + systemic / organ weight / pituitary gland / relative to body weight + systemic / …); 150 mg/kg/day in the data set on rat [8] (group: developmental, developmental / developmental malformation / great vessels / [other]); 1000 mg/kg/day in the data set with rat [8] (setting [29]); 500 mg/kg/day with rat [9] (setting [30]); 500 mg/kg/day with rat [9] (setting [31]). The LOAEL was more than 25 mg/kg/day with rat [7] (setting [27]); more than 1000 mg/kg/day with rat [8] (setting [28]); more than 1000 mg/kg/day in the data set on rat [8] (setting [29]); more than 500 mg/kg/day in the data set with rat [9] (setting [30]); more than 500 mg/kg/day with rat [9] (setting [31]). For the same compound, the NOAEL in the data set on rat [7] (setting [27]) was not below 25 mg/kg/day; in the data set on rat [8] (setting [28]), not below 1000 mg/kg/day; in the data set with rat [8] (setting [29]) it was not below 1000 mg/kg/day; with rat [9] (setting [30]) it was not below 500 mg/kg/day; in the data set on rat [9] (setting [31]), not below 500 mg/kg/day.
Take `OC(Cc1ccccc1Cl)(Cn1[nH]cnc1=S)C1(Cl)CC1` (centres undefined) [Prothioconazole]: the LEL in the data set on rat [10] (setting [32]) is 30 mg/kg/day; with rat [10] (setting [33]), 750 mg/kg/day; with rat [11], 100 mg/kg/day; in the data set with rat [12] (setting [34]), 750 mg/kg/day; in the data set with rat [12] (group: parental, systemic / organ weight / thymus / absolute + systemic / organ weight / thymus / relative to body weight + systemic / organ weight / seminal…), 100 mg/kg/day; with rat [12] (setting [36]) it was 750 mg/kg/day. The LEL with rat [13] (setting [37]) turned out to be 1000 mg/kg/day; in the data set on rat [13] (setting [38]), 200 mg/kg/day; in the data set with rabbit (setting [40]), 10 mg/kg/day; in the data set with rabbit (setting [41]), 50 mg/kg/day. Further, the LOAEL with rat [10] (setting [32]) was determined as 30 mg/kg/day; in the data set with rat [10] (setting [33]), 750 mg/kg/day; in the data set on rat [11] it was 100 mg/kg/day; in the data set on rat [12] (setting [34]), 750 mg/kg/day; in the data set with rat [12] (setting [35]), 750 mg/kg/day; with rat [12] (setting [36]), 750 mg/kg/day. In addition, the LOAEL in the data set on rat [13] (setting [37]) was more than 1000 mg/kg/day; with rat [13] (setting [38]), 200 mg/kg/day; in the data set with rabbit (setting [40]), 10 mg/kg/day; with rabbit (setting [41]), 50 mg/kg/day. Further, the NEL in the data set on rat [10] (setting [32]) is less than 30 mg/kg/day; with rat [10] (setting [33]) it was 150 mg/kg/day; with rat [11] it was less than 100 mg/kg/day; with rat [12] (setting [34]), 100 mg/kg/day; in the data set on rat [12] (setting [35]) it was 10 mg/kg/day; in the data set on rat [12] (setting [36]) it was 100 mg/kg/day. Moreover, the NEL in the data set on rat [13] (setting [37]) came to 200 mg/kg/day; with rat [13] (setting [39]), 40 mg/kg/day; in the data set on rabbit (setting [40]), 2 mg/kg/day; with rabbit (setting [41]) it was 10 mg/kg/day. Besides, the NOAEL in the data set with rat [10] (setting [32]) was less than 30 mg/kg/day; with rat [10] (setting [33]) it was 150 mg/kg/day; in the data set on rat [11], less than 100 mg/kg/day; with rat [12] (setting [34]) it was 100 mg/kg/day; with rat [12] (setting [35]), 100 mg/kg/day; in the data set on rat [12] (setting [36]), 100 mg/kg/day. Further, the NOAEL in the data set on rat [13] (setting [37]) is not below 1000 mg/kg/day; with rat [13] (setting [39]), 40 mg/kg/day; in the data set on rabbit (setting [40]) it was 2 mg/kg/day; in the data set on rabbit (setting [41]), 10 mg/kg/day.
In the case of `O=C([O-])c1ccccc1O.[Na+]` [Sodium salicylate], in the data set with rat [14], the LEL stood at 12.5 mg/kg/day, the LOAEL was more than 150 mg/kg/day, the NEL is 4.2 mg/kg/day and the NOAEL is not below 150 mg/kg/day.
